Experiment [1] concerns the target T1, human EPO-R (FDCP-1/hEPO-R cells) (Homo sapiens, UniProt P19235).
T1 construct: expressed in transfected cells; host or cells: FDCP-1 (murine hematopoietic progenitor cell line)
T1 sequence (P19235 25-508): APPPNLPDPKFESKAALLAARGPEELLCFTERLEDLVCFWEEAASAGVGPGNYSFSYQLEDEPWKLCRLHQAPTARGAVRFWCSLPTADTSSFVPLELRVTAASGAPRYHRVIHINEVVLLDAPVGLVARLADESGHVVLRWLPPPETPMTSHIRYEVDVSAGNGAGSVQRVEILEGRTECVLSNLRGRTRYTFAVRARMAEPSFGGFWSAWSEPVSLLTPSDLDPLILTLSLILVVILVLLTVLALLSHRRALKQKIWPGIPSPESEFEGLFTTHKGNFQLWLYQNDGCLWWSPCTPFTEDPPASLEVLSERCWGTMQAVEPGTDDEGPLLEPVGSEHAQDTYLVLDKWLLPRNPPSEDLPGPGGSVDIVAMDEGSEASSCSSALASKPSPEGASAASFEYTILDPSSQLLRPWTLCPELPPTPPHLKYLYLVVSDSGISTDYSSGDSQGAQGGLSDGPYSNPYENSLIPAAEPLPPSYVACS
As to the kind of experiment: FDCP-1/hEPO-R cell proliferation bioassay. The class given is cell-based.
Experimental: One assay utilized FDCP-1, a growth factor dependent murine multi-potential primitive hematopoietic progenitor cell line (see, e.g., Dexter et al. (1980) J. Exp. Med. 152:1036-1047), as the parental cell line. This cell line can proliferate, but not differentiate, when supplemented with WEHI3-conditioned media (a medium that contains IL-3, ATCC number T1B68).
In brief, the cells are grown to half stationary density in the presence of the necessary growth factors. The cells are then washed in PBS and starved for 16-24 hours in whole media without the growth factors. After determining the viability of the cells, stock solutions (in whole media without the growth factors) are made to give about 10^5 cells per 50 microliters. […] Cells (50 microliters) are added to each well and the cells are incubated 24-48 hours, at which point the negative controls should die or be quiescent. Cell proliferation is then measured by techniques known in the art, such as an MTT assay which correlates with ^3 H-thymidine incorporation as an indication of cell proliferation (see, Mosmann (1983) J. Immunol. Methods 65:55).

For experiment [2], the target named is T2, truncated human erythropoietin receptor (Homo sapiens, UniProt P19235).
T2 sequence (P19235 25-468 limits assumed): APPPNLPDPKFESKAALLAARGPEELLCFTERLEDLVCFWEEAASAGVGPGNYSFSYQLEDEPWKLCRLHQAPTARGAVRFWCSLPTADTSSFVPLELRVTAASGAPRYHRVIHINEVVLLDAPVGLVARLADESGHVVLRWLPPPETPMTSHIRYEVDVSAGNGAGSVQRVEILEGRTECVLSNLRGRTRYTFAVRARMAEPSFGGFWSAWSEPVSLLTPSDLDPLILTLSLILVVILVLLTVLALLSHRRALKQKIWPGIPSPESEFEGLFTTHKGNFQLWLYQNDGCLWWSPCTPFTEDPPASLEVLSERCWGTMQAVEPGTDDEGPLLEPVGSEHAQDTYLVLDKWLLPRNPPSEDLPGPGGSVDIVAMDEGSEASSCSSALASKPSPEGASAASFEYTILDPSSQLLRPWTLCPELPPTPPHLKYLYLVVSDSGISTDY
As to the kind of experiment: cell-based.
Experimental: Cells are counted and resuspended at a concentration of 800,000 cells/ml. Approximately forty thousand cells (50μ) are added to each well of a 96 well microtiter plate. Peptide is added to each well in triplicate. A standard dose response determination is run with each series of peptides. After a forty-two hr incubation (≈2 doubling), each well is pulsed with 1 μCi/well Thymidine. Cells are incubated an additional six hr at which time cells are harvested and counted to assess thymidine incorporation as an indicator of cell proliferation.

The target in experiment [3] is T3, extracellular domain of the human erythropoietin receptor (EPO binding protein, EBP) (Homo sapiens, UniProt P19235).
T3 construct: made in house; host or cells: E. coli
T3 sequence (P19235 25-250 limits assumed): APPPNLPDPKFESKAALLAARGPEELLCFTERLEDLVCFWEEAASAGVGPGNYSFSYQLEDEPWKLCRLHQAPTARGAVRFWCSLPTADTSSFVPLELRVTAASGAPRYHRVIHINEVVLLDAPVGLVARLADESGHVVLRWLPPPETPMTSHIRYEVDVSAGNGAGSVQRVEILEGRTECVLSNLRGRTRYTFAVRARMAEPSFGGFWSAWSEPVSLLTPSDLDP
The experiment can be described thus: Immobilized EBP based [125I]EPO competition binding assay. Particulars: IC50 relative to RWJ61233 (IC50 of 5 μM). On the procedure: The iodoacetyl activation chemistry of Sufolink beads (Pierce Chemical Co, Rockford, Ill.) is specific for free thiols and assures that the linkage is not easily reversible. EBP-Sulfolink beads were made as follows: SulfoLink gel suspension (10 ml) was mixed with coupling buffer (40 ml: 50 mM Tris, pH 8.3, 5 mM EDTA) and the gel was allowed to settle. The supernatant was removed and the EBP (0.3-1 mg/ml in coupling buffer) to be bound was added directly to the washed beads. The mixture was rocked gently for 30 minutes at room temperature, and the beads were allowed to settle for 1 hour at room temperature. […] The amount of EBP which was covalently bound to the beads was determined by comparing the OD280 of the original EBP solution to the total OD280 recovered in the reaction supernatant and the two 20 ml washes.
Binding assays were initiated by the addition of EBP beads (50 μl) to individual reaction tubes. […] The tubes were incubated for five hours (a time period experimentally determined as adequate for the establishment of equilibrium) at room temperature with gentle rocking. […]
Competitive binding analysis assays of candidate peptides were performed as outlined below. […] The columns containing the washed beads were placed in 12×75 mm glass tubes and bound radioactivity levels were determined using a gamma counter.

pEC50: −log10 of the molar value. Entries after “also recorded” stand apart in the source; their conditions may differ. Residues, ends and D or L forms follow the SMILES beside them. No end group written: not given here. Some results are limits rather than exact numbers.

As to `CC(C)C[C@@H]1NC(=O)[C@@H]2CCCN2C(=O)CNC(=O)[C@H](Cc2ccccc2)NC(=O)[C@H](Cc2c[nH]cn2)NC(=O)[C@@H](NC(=O)[C@H](CO)NC(=O)[C@H](Cc2ccc(O)cc2)NC(=O)[C@@H](NC(=O)CNC(=O)CN)[C@@H](C)O)CSSC[C@@H](C(=O)N[C@@H](CCCCN)C(=O)N2CCC[C@H]2C(=O)N[C@@H](CCC(N)=O)C(=O)NCC(=O)NCC(=O)N[C@@H](CO)C(=O)N[C@@H](CO)C(=O)N[C@@H](CCCCNC(=O)CCCCCNC(=O)CCCC[C@@H]2SC[C@@H]3NC(=O)N[C@@H]32)C(N)=O)NC(=O)[C@H](C(C)C)NC(=O)[C@H](Cc2c[nH]c3ccccc23)NC(=O)[C@H]([C@@H](C)O)NC1=O` [AF11505] (HELM PEPTIDE1{G.G.T.Y.S.C.H.F.G.P.L.T.W.V.C.K.P.Q.G.G.S.S.K.[am]}|PEPTIDE2{[O=C1N[C@H]2[C@H](CS[C@H]2CCCCC(=O)[*:2])N1].[O=C(CCCCCN[*:1])[*:2]]}$PEPTIDE1,PEPTIDE2,23:R3-2:R2|PEPTIDE1,PEPTIDE1,6:R3-15:R3$$$V2.0; N-terminus and C-terminus assumed; bridges inferred), the pEC50 in experiment [1] (free peptides, read-out: EPO-ED50) is about 6.00. Turning to `CC(C)C[C@@H]1NC(=O)[C@@H]2CCCN2C(=O)CNC(=O)[C@H](Cc2ccccc2)NC(=O)[C@H](Cc2c[nH]cn2)NC(=O)[C@@H](NC(=O)[C@H](CO)NC(=O)[C@H](Cc2ccc([N+](=O)[O-])cc2)NC(=O)[C@@H](NC(=O)CNC(=O)CN)[C@@H](C)O)CSSC[C@@H](C(=O)N[C@@H](CCCCN)C(=O)N2CCC[C@H]2C(=O)N[C@@H](CCC(N)=O)C(=O)NCC(=O)NCC(N)=O)NC(=O)[C@H](C(C)C)NC(=O)[C@H](Cc2c[nH]c3ccccc23)NC(=O)[C@H]([C@@H](C)O)NC1=O` [RWJ 61894, GGTXSCHFGPLTWVCKPQGG] (HELM PEPTIDE1{G.G.T.[O=C([C@H](Cc1ccc([N+](=O)[O-])cc1)N[*:1])[*:2]].S.C.H.F.G.P.L.T.W.V.C.K.P.Q.G.G.[am]}$PEPTIDE1,PEPTIDE1,6:R3-15:R3$$$V2.0), the pEC50 in experiment [2] was 6.10. Regarding `CC(C)C[C@@H]1NC(=O)[C@@H]2CCCN2C(=O)CNC(=O)[C@H](Cc2ccccc2)NC(=O)[C@H](Cc2c[nH]cn2)NC(=O)[C@@H](NC(=O)[C@H](CO)NC(=O)[C@H](Cc2ccc(N)cc2)NC(=O)[C@@H](NC(=O)CNC(=O)CN)[C@@H](C)O)CSSC[C@@H](C(=O)N[C@@H](CCCCN)C(=O)N2CCC[C@H]2C(=O)N[C@@H](CCC(N)=O)C(=O)NCC(=O)NCC(N)=O)NC(=O)[C@H](C(C)C)NC(=O)[C@H](Cc2c[nH]c3ccccc23)NC(=O)[C@H]([C@@H](C)O)NC1=O` [RWJ 62019, GGTXSCHFGPLTWVCKPQGG] (HELM PEPTIDE1{G.G.T.[Nc1ccc(C[C@H](N[*:1])C(=O)[*:2])cc1].S.C.H.F.G.P.L.T.W.V.C.K.P.Q.G.G.[am]}$PEPTIDE1,PEPTIDE1,6:R3-15:R3$$$V2.0), in experiment [2], the pEC50 was 5.52. As to `CC(=O)NCC(=O)NCC(=O)N[C@H](C(=O)N[C@@H](Cc1ccc(O)cc1)C(=O)N[C@@H](CO)C(=O)N[C@H]1CSSC[C@@H](C(=O)N[C@@H](CCCCN)C(=O)N2CCC[C@H]2C(=O)N[C@@H](CCC(N)=O)C(=O)NCC(=O)NCC(N)=O)NC(=O)[C@H](C(C)C)NC(=O)[C@H](Cc2c[nH]c3ccccc23)NC(=O)[C@H]([C@@H](C)O)NC(=O)[C@H](CC(C)C)NC(=O)[C@@H]2CCCN2C(=O)CNC(=O)[C@H](Cc2ccccc2)NC(=O)[C@H](Cc2c[nH]cn2)NC1=O)[C@@H](C)O` [RWJ 62146] (HELM PEPTIDE1{[ac].G.G.T.Y.S.C.H.F.G.P.L.T.W.V.C.K.P.Q.G.G.[am]}$PEPTIDE1,PEPTIDE1,7:R3-16:R3$$$V2.0), the “Relative Binding” value in experiment [3] was 4. On to “GGTYSCHFGPLTWVCKPQGGSSK+G anti-B: biotinylated peptide preincubated with purified goat anti-biotin IgG at a 2:1 molar ratio (cysteine pairing not given here; also: biotinylated, site not given here, preincubated with goat anti-biotin IgG at 2:1 molar ratio)”, for which the “reduction in EPO-ED50 / increase in potency over the free peptide” value in experiment [1] was “one log reduction”. In the case of “RWJ 61721: sequence analog peptide shown only as a drawing in Table 19 (GGTYSEHFGPLTWVKKPQGG)”, in experiment [3], the “Relative Binding” value is reported as over 100. “Streptavidin: streptavidin alone, control for the complex [reference compound]”: in experiment [1] (tested without peptide), the stimulatory effect alone entry is recorded as “some small stimulatory effect at the highest concentrations; also recorded: marginal activity at high concentrations”.

The values above are taken from patent US5830851A (Affymax Technologies N.V., priority 1995, dated 1998).
